What all share (assay): Ras-Raf disruption / FRET / MOA assay (BRAF RBD)
Holding throughout (assay type): biochemical

Test [1] deals with KRAS G12D (Homo sapiens, UniProt P01116+P62937, G12D). To be noted: Ras-Raf disruption, with Cyclophilin A; read-out: KRAS G12D FRET data IC50. Summed up: (§1)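 Compound-induced Ras–Cyclophilin A ternary complex disrupting BRAF RBD binding, read as IC50 from reduced TR-FRET ratio relative to DMSO. Final: Ras-GMPPNP 12.5 nM, BRAF RBD 50 nM, Cyclophilin A 25 μM, top compound 30 μM (3-fold, 10 points); 3 h at 25 °C, then 1.5 h with detection antibodies.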
Sequence of KRAS G12D (P01116 1-169 isoform P01116-2 G12D limits assumed): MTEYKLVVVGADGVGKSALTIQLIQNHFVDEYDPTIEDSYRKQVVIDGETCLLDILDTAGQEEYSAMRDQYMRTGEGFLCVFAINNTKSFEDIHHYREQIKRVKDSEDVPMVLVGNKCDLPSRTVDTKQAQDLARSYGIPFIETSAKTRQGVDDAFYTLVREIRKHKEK
Sequence of KRAS G12D (P62937 whole entry): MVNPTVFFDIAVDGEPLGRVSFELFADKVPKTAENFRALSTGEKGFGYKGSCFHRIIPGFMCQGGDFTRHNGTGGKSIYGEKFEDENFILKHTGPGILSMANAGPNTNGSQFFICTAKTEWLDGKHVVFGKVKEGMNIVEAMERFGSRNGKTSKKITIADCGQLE

Test [2] addresses KRAS G12S (Homo sapiens, UniProt P01116+P62937, G12S). Particulars: Ras-Raf disruption, with Cyclophilin A; read-out: KRAS G12S FRET data IC50. In outline: as §1
The target in test [3] is KRAS G12V (Homo sapiens, UniProt P01116+P62937, G12V). Particulars: Ras-Raf disruption, with Cyclophilin A; read-out: KRAS G12V FRET data IC50. In outline:
as §1

Test [4] concerns the target KRAS G13C (Homo sapiens, UniProt P01116+P62937, G13C). Particulars: Ras-Raf disruption, with Cyclophilin A; read-out: KRAS G13C FRET data IC50. In outline: as §1
Test [5] concerns the target KRAS G13D (Homo sapiens, UniProt P01116+P62937, G13D). Particulars: Ras-Raf disruption, with Cyclophilin A; read-out: KRAS G13D FRET data IC50. Summed up: as §1
Test [6] concerns the target KRAS Q61H (Homo sapiens, UniProt P01116+P62937, Q61H). Particulars: KRAS Q61H; read-out: KRAS Q61H FRET data IC50. Summed up: as §1
The target in test [7] is KRAS WT (Homo sapiens, UniProt P01116+P62937). Particulars: Ras-Raf disruption, with Cyclophilin A; read-out: KRAS WT FRET data IC50. In outline: as §1
Sequence of KRAS WT (P01116 1-169 isoform P01116-2 limits assumed): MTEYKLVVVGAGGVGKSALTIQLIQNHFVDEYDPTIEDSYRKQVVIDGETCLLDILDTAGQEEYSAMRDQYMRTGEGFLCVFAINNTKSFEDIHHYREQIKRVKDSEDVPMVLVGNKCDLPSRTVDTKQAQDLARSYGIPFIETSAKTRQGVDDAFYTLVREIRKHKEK
Sequence of KRAS WT (P62937 whole entry): as the sequence (P62937 whole entry) above
For test [8], the target named is NRAS G12C (Homo sapiens, UniProt P01111+P62937, G12C). Particulars: NRAS G12C; read-out: NRAS G12C FRET data IC50. In outline: as §1
Sequence of NRAS G12C (P01111 whole entry G12C): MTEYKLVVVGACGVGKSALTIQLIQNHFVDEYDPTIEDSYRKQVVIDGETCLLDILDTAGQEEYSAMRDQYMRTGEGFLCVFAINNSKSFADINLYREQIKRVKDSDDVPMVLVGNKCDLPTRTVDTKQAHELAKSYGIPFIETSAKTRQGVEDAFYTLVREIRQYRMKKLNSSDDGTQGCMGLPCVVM
Sequence of NRAS G12C (P62937 whole entry): as the sequence (P62937 whole entry) above
Test [9] has as its target NRAS Q61K (Homo sapiens, UniProt P01111+P62937, Q61K). To be noted: NRAS Q61K; read-out: NRAS Q61K FRET data IC50. In outline:
as §1

In test [10] the target is NRAS Q61R (Homo sapiens, UniProt P01111+P62937, Q61R). Particulars: NRAS Q61R; read-out: NRAS Q61R FRET data IC50. Summed up:
as §1

Test [11] concerns the target NRAS WT (Homo sapiens, UniProt P01111+P62937). Particulars: NRAS WT; read-out: NRAS WT FRET data IC50. In outline:
as §1

Test [12] deals with KRAS G12C (Homo sapiens, UniProt P01116+P62937, G12C). Particulars: Ras-Raf disruption, with Cyclophilin A; read-out: KRAS G12C FRET data IC50. Summed up:
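TR-FRET read-out after 1.5 h with anti-His Eu-W1024 (10 nM) and anti-GST APC (50 nM), following 3 h at 25 °C of compound (top 30 μM, 3-fold, 10 points) with 25 μM Cyclophilin A, 12.5 nM GMPPNP-loaded K-Ras G12C and 50 nM BRAF RBD; IC50 reported.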

Sequence of KRAS G12V (P01116 1-169 isoform P01116-2 G12V limits assumed): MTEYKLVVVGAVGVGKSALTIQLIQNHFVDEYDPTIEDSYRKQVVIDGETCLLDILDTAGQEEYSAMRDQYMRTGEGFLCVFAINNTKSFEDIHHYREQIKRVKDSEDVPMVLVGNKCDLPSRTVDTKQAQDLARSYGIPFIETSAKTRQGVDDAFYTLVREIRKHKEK
Sequence of KRAS G12V (P62937 whole entry): as the sequence (P62937 whole entry) above
Sequence of KRAS G12S (P01116 1-169 isoform P01116-2 G12S limits assumed): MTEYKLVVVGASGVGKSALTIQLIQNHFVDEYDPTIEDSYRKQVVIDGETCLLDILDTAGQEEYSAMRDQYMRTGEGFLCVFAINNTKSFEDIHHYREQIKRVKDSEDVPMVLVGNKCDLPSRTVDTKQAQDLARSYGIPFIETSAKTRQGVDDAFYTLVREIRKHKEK
Sequence of KRAS G12S (P62937 whole entry): as the sequence (P62937 whole entry) above
Sequence of KRAS G13D (P01116 1-169 isoform P01116-2 G13D limits assumed): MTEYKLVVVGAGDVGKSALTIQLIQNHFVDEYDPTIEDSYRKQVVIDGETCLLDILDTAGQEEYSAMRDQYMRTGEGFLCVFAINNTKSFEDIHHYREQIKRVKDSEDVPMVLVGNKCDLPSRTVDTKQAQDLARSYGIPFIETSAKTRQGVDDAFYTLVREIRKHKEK
Sequence of KRAS G13D (P62937 whole entry): as the sequence (P62937 whole entry) above
Sequence of NRAS Q61R (P01111 whole entry Q61R): as the sequence (P01111 whole entry G12C) above, with C12G, Q61R counted along it
Sequence of NRAS Q61R (P62937 whole entry): as the sequence (P62937 whole entry) above
Sequence of NRAS WT (P01111 whole entry): as the sequence (P01111 whole entry G12C) above, with C12G counted along it
Sequence of NRAS WT (P62937 whole entry): as the sequence (P62937 whole entry) above
Sequence of NRAS Q61K (P01111 whole entry Q61K): as the sequence (P01111 whole entry G12C) above, with C12G, Q61K counted along it
Sequence of NRAS Q61K (P62937 whole entry): as the sequence (P62937 whole entry) above
Sequence of KRAS G13C (P01116 1-169 isoform P01116-2 G13C limits assumed): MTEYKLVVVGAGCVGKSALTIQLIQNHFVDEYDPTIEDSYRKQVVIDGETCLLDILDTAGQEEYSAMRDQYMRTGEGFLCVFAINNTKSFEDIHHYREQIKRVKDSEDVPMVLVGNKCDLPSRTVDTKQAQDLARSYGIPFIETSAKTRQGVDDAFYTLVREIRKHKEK
Sequence of KRAS G13C (P62937 whole entry): as the sequence (P62937 whole entry) above
Sequence of KRAS G12C (P01116 1-169 isoform P01116-2 G12C limits assumed): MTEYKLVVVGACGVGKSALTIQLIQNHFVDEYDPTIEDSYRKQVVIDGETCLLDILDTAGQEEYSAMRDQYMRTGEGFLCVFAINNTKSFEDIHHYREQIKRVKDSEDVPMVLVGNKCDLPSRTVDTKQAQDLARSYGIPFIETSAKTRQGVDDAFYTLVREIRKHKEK
Sequence of KRAS G12C (P62937 whole entry): as the sequence (P62937 whole entry) above
Sequence of KRAS Q61H (P01116 1-169 isoform P01116-2 Q61H limits assumed): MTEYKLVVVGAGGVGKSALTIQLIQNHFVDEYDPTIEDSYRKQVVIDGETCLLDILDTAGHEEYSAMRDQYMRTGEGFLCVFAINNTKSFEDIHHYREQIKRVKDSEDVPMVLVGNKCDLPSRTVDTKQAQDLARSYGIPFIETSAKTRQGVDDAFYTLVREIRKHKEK
Sequence of KRAS Q61H (P62937 whole entry): as the sequence (P62937 whole entry) above

By IC50 is commonly meant the point on the concentration scale where inhibition reaches its midpoint. As to `CCn1c(-c2cccnc2[C@H](C)OC)c2c3cc(ccc31)-c1cc(O)cc(c1)C[C@H](NC(=O)[C@H](C(C)C)N(C)C(=O)[C@@H]1CCN(C(=O)[C@H]3CN3)C1)C(=O)N1CCC[C@H](N1)C(=O)OCC(C)(C)C2` (atropisomer, axis not shown) [Example 186], the IC50 in test [1], in [2], in test [3], in test [4], in test [5] and in test [6] was 10 to 100 nM throughout. Also, the IC50 is 10 to 100 nM in test [7]; < 10 nM in test [8]; 100 to 1000 nM in test [9]; 100 to 1000 nM in [10]; 10 to 100 nM in test [11]; < 10 nM in test [12].
Turning to `CCn1c(-c2cccnc2[C@H](C)OC)c2c3cc(ccc31)-c1csc(n1)C[C@H](NC(=O)[C@H](C(C)C)N(C)C(=O)N1CC(N(C)C(=O)[C@H]3CN3)C1)C(=O)N1CCC[C@H](N1)C(=O)OCC(C)(C)C2` [Example 218], the IC50 in [1] is 1000 to 10000 nM; in test [2], 100 to 1000 nM; in test [3], 100 to 1000 nM; in test [4], 100 to 1000 nM; in test [5], 100 to 1000 nM; in test [6], 10 to 100 nM. Also, the concentration for half-maximal inhibition (IC50) was in the range of 100 to 1000 nM in test [7]; 10 to 100 nM in [8]; 10 to 100 nM in test [9]; 100 to 1000 nM in test [10]; 100 to 1000 nM in test [11].
As to `CCn1c(-c2cccnc2[C@H](C)OC)c2c3cc(ccc31)-c1cccc(c1)C[C@H](NC(=O)[C@H](C1CCCC1)N1CC[C@]3(CCN(C(=O)[C@@H]4N[C@@H]4C4CC4)C3)C1=O)C(=O)N1CCC[C@H](N1)C(=O)OCC(C)(C)C2` [Example 313], the IC50 is 100 to 1000 nM in test [1]; 1000 to 10000 nM in test [2]; 1000 to 10000 nM in test [3]; 100 to 1000 nM in test [4]; 1000 to 10000 nM in test [5]; 1000 to 10000 nM in test [7]. The half-maximal inhibitory concentration (IC50) in test [8] is 100 to 1000 nM; in test [9] it was 1000 to 10000 nM; in [10], 1000 to 10000 nM; in test [11], 1000 to 10000 nM; in test [12], 100 to 1000 nM.

For the origin of these results see patent publication US20230233569A1 (Revolution Medicines, Inc., priority 2020, published 2023).
